Entries after “also recorded” stand apart in the source; their conditions may differ.

A short description of series [1]: Microsomal stability assay. Format: in vitro ADME, Mouse. The conditions noted are these: mouse liver microsomes, 1 µM compound. How it is done: A microsomal stability assay was performed using the Corning Gentest NADPH Regenerating System (Corning, #451220/41200) (Corning, NY, USA). Mouse liver microsomes (MLM) (Xenotech, M1000) (Kansas City, KS, USA) and compounds were diluted to a final concentration of 0.15 mg/mL and 1 μM respectively. These were prepared into a 500 μL solution with 100 mM potassium phosphate buffer (pH = 7.4). Imipramine was used as a control. NADPH solutions A and B were mixed in a 5:1 ratio, and 24 μL of the NADPH was added to each of the MLM/compound samples at 30 s intervals. At time points 10, 20, and 45 min, 100 μL of reaction was added to the stopping solution. Samples were centrifuged at 18,000× g and incubated at 4 °C for 10 min. Samples were then loaded onto a LC-MS 96-well plate for analysis.
A general note: Liver microsomes are a subcellular fraction often used to study metabolism.

The target of series [2] is T1, N-Myc-Max heterodimer (Homo sapiens, UniProt P04198+P61244).
T1 construct: expressed in transfected cells; host or cells: LNCaP-NMYC cells (gift from David Rickman)
In words: Proximity ligation assay (PLA) in LNCaP-NMYC cells. The series is classed as cell-based. Conditions: 10 µM, 72 h. The method, then:
(§1) To confirm that 70619 could disrupt the binding of N-Myc-Max DBD to DNA, we performed a bio-layer interferometry (BLI) assay where we immobilized biotinylated E-box sequence on streptavidin sensors, and we evaluated recombinant N-Myc-Max binding to the DNA in the presence of increasing concentrations of VPC-70619. […] We observed a similar number of interactions when comparing the ratio of signal per nuclei in the presence or absence of the compound.
LNCaP-NMYC cells were seeded on coverslips at a density of 10^5 cells per well of a 6-well plate. After incubation for 24 h the cells were treated with 10 μM of either 10074-G5 or 70619 for 72 h. The coverslips were fixed with methanol:acetone (3:1) and incubated with primary antibodies n-Myc Antibody (NMYC-1) (Novus Biologicals NB200-109) (Littleton, CO, USA) and MAX Antibody (C-17) (Santa Cruz sc-197) (Dallas, TX, USA) overnight at 4 °C. PLA was conducted using the Duolink In Situ Detection Reagents Red kit (Sigma DUO92008) according to the manufacturer’s protocol. The coverslips were then mounted on slides with VECTASHIELD mounting media with DAPI, and images were taken on ZEISS 780 confocal microscope at 40× magnification.

Series [3] has as its system N-Myc-Max transcription activity (LNCaP-NMYC cells). Put plainly: Myc transcription assay (Cignal Myc reporter, luciferase) in LNCaP-NMYC cells. The series is classed as cell-based. In outline:
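LNCaP-NMYC cells transfected with Cignal Myc luciferase reporter were treated 24 h with compounds at 5 µM or 10 µM. Read-out: inhibition of N-Myc-Max-driven reporter luminescence.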

Series [4] deals with N-Myc-Max binding to DNA E-box. Put plainly: Biolayer interferometry (BLI), N-Myc-Max binding to biotinylated E-box DNA. Format: biochemical. The conditions noted are these: BLI, 0, 50, 100, 200 µM.
Source text: as §1
The bHLHLZ domain of N-Myc (amino acids 309–394) and Max (amino acids 12–93) protein sequences were cloned into pETDuet with an N-terminal 6×His. pETDuet-His-NMyc-Max was transformed and expressed in E. coli BL21 and induced with 0.5 mM isopropyl-β-D-thiogalactopyranoside (IPTG) at 16 °C overnight. The cultures were lysed by sonication and combined for purification by immobilized metal ion chromatography (IMAC) with nickel-nitrilotriacetic acid (Ni-NTA) resin. The bound proteins were eluted from the column with 20 mM Tris, pH = 8, 500 mM NaCl, 5% glycerol, 300 mM imidazole, 5 mM βMe, and 0.1 mM PMSF. Size exclusion chromatography with Superdex 75 was used to increase the purity of the N-Myc-Max protein sample. The purified protein complex was used in subsequent BLI and MST experiments.
Biotinylated-duplex DNA (Forward: 5′ Biotin-[…], Reverse: […]) was bound to the super-streptavidin (SSA) ForteBio Sensor in the assay buffer [20 mM Tris pH = 8, 150 mM NaCl, 5% glycerol, and 0.2 mM TCEP]. The protein solution was mixed with the serially diluted compound (70619) to a final concentration of 0.1 mg/mL of protein and 200 μM, 100 μM, and 50 μM for the compound. Sample containing N-Myc-Max protein alone was used as a control.
(In general: BLI is a label-free optical method that tracks binding on a fibre tip over time.)

In series [5] the test system is N-Myc-Max transcription activity (LNCaP-NMYC cells). Put plainly: Myc transcription assay (Cignal Myc reporter, luciferase) in LNCaP-NMYC cells. Format: cell-based.

T1 sequence (P04198 whole entry): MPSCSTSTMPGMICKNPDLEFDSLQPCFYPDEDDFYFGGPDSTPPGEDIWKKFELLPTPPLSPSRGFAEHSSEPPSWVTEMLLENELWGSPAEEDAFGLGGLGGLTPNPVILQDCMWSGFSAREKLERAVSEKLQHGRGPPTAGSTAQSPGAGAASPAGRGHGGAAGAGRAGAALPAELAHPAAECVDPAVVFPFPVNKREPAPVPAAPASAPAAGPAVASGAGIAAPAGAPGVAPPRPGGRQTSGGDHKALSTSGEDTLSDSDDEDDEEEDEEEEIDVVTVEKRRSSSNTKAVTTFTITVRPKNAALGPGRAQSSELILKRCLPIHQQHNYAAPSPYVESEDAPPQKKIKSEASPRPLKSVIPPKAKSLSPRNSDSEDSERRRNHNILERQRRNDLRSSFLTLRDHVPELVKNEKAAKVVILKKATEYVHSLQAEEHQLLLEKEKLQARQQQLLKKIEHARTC
T1 sequence (P61244 whole entry): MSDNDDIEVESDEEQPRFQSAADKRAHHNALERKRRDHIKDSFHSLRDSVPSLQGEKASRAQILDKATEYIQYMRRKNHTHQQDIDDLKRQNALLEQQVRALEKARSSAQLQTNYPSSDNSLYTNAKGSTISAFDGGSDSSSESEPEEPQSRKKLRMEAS

Regarding `O=[N+]([O-])c1ccc(Nc2ccccc2-c2ccccc2)c2nonc12` [10074-G5, reference compound], the “microsomal half-life (T1/2)” value in series [1] stood at 3 min. Further, the “effect on N-Myc-Max heterodimer interactions (in words)” value in series [2] is recorded as “significant decrease in the number of interactions; also recorded: the number of interactions is reduced”.
For the molecule `O=C(NNc1ccc(C(F)(F)F)cc1[N+](=O)[O-])c1cnccn1` [compound 70127], the IC50 in series [3] (Homo sapiens, LNCaP, Table 1, transcriptional assay in LNCaP cells overexpressing N-Myc, read-out: IC50) came to 1 µM. Further, in series [3] (LNCaP-NMYC, screened at 10 µM and 5 µM), the “transcription inhibition activity (in words)” value is “strong Myc inhibitory activity”. Also, the “disruption of DNA binding to (N-)Myc-Max (in words)” value in series [4] is “weakly disrupts DNA binding”. Also, the inhibition at 25 µM in series [5] came to 106%.

What is called IC50 is the midpoint of a concentration-inhibition curve. In general, inhibition refers to the drop in the measured response relative to a control, in per cent.

Values taken from PMC8910697, “Development of VPC-70619, a Small-Molecule N-Myc Inhibitor as a Potential Therapy for Neuroendocrine Prostate Cancer” (International Journal of Molecular Sciences, 2022).
